Literature values in PMC9516332 (Frontiers in Oncology, 2022).
Like-named read-outs stand apart in the source and are kept apart here.

Legend:
Conditions in all cases: cited from earlier work
[1] = molecular target: panel of 255 wild-type kinases (Homo sapiens, UniProt Q9H2G2)
[2] = molecular target: T1, panel of 255 wild-type kinases (Homo sapiens, UniProt Q9NRM7)
T1 sequence (Q9NRM7 1-1088): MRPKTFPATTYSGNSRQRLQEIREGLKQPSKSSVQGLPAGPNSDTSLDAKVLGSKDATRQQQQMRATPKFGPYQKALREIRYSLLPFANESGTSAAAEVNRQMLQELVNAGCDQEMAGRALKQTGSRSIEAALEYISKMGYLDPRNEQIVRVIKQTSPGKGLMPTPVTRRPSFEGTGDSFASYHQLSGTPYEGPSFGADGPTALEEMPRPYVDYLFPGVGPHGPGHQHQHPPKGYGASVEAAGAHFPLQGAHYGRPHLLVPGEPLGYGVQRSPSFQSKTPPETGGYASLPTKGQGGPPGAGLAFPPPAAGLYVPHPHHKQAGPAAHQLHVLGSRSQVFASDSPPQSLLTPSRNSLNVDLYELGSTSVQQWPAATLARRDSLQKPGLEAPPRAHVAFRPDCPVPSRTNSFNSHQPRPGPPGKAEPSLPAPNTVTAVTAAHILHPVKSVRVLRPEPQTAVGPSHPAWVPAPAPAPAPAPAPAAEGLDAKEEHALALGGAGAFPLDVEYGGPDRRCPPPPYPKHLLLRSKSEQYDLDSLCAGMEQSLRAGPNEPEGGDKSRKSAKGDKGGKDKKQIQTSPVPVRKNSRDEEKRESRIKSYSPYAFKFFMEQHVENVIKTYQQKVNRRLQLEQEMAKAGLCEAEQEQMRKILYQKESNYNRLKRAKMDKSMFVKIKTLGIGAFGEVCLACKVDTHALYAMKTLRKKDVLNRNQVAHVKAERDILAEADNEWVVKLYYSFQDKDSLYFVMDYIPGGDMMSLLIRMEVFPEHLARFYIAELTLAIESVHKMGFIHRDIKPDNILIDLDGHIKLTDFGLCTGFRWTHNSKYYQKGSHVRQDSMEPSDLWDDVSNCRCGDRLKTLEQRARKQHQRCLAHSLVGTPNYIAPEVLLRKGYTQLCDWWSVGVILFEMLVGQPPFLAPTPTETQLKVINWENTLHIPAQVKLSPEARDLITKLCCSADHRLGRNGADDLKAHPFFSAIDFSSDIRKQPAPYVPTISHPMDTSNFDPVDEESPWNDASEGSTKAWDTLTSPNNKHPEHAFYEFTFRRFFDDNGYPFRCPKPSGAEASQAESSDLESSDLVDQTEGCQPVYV

[3] = molecular target: T2, panel of 255 wild-type kinases (Homo sapiens, UniProt Q14164)
T2 sequence (Q14164 1-716): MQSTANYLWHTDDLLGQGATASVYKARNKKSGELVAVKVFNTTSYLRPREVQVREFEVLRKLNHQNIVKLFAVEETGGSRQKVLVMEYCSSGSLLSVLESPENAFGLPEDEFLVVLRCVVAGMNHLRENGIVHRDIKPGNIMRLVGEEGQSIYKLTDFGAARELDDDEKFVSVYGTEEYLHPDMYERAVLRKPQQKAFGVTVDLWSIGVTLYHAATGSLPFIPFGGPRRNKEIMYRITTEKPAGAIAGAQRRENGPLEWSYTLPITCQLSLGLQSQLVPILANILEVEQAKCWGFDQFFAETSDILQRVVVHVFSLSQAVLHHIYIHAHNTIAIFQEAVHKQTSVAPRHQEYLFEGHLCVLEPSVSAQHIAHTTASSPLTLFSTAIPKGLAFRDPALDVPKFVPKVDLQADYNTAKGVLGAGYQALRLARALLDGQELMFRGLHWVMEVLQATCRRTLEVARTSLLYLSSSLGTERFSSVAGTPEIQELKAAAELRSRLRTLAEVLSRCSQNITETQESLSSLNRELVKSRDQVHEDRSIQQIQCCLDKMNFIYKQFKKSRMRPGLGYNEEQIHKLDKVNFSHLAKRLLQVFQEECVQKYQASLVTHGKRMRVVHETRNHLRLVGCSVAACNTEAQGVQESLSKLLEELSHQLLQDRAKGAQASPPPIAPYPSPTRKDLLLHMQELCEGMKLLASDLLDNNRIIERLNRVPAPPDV

[4] = molecular target: T3, panel of 255 wild-type kinases (Homo sapiens, UniProt P21709)
T3 sequence (P21709 26-976): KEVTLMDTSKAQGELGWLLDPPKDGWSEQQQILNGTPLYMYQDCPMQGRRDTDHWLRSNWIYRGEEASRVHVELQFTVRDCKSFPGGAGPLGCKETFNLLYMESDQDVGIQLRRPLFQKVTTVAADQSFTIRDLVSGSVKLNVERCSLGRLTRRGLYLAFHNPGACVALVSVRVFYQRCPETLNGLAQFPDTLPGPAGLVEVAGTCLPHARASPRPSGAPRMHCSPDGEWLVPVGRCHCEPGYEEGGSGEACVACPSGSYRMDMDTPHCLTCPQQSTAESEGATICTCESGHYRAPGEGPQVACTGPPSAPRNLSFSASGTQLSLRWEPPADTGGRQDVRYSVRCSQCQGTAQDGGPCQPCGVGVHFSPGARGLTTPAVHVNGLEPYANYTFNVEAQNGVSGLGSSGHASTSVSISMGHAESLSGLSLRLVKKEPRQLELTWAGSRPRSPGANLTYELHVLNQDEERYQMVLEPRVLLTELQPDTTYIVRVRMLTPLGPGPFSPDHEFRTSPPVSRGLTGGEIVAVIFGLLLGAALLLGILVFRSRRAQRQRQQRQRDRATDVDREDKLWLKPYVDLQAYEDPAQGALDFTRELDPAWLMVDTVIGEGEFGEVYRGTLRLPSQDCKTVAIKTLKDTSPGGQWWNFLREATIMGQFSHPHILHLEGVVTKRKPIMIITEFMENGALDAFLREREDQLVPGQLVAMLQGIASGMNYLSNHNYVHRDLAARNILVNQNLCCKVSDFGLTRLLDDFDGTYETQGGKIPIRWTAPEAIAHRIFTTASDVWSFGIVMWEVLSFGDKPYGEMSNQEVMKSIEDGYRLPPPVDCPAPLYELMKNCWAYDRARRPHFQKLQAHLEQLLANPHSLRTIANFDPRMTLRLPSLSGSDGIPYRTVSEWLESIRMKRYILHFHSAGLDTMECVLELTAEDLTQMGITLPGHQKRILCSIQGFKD

[5] = kinase SLK, 1 µmol/L single concentration, ref DOI: 10.1158/1535-7163.MCT-18-0877
[6] = kinase LATS2, 1 µmol/L single concentration, ref DOI: 10.1158/1535-7163.MCT-18-0877
[7] = kinase IKKε, 1 µmol/L single concentration, ref DOI: 10.1158/1535-7163.MCT-18-0877
[8] = kinase EPHA1, 1 µmol/L single concentration, ref DOI: 10.1158/1535-7163.MCT-18-0877
[9] = kinase SLK, 1 µmol/L single concentration, ref DOI: 10.1371/journal.pone.0092146
[10] = kinase LATS2, 1 µmol/L single concentration, ref DOI: 10.1371/journal.pone.0092146
[11] = kinase IKKε, 1 µmol/L single concentration, ref DOI: 10.1371/journal.pone.0092146
[12] = kinase EPHA1, 1 µmol/L single concentration, ref DOI: 10.1371/journal.pone.0092146

## CC#CC(=O)N1CCC[C@H]1c1nc(-c2ccc(C(=O)Nc3ccccn3)cc2)c2c(N)nccn12 [acalabrutinib]
[1]; [5]
  %-inhibition at 1 µmol/L, SLK: 1.61%
[2]; [6]
  %-inhibition at 1 µmol/L, LATS2: -7.45%
[3]; [7]
  %-inhibition at 1 µmol/L, IKKε: 1.46%
[4]; [8]
  %-inhibition at 1 µmol/L, EPHA1: -0.591%

## CCc1cc2c(cc1N1CCC(N3CCOCC3)CC1)C(C)(C)c1[nH]c3cc(C#N)ccc3c1C2=O [alectinib]
[1]; [5]
  %-inhibition at 1 µmol/L, SLK: 12%
[2]; [6]
  %-inhibition at 1 µmol/L, LATS2: 1.69%
[3]; [7]
  %-inhibition at 1 µmol/L, IKKε: 1.59%
[4]; [8]
  %-inhibition at 1 µmol/L, EPHA1: 5.62%

## COc1cc(N2CCC(N3CCN(C)CC3)CC2)ccc1Nc1ncc(Cl)c(Nc2ccccc2P(C)(C)=O)n1 [brigatinib]
[1]
  %-inhibition at 1 µmol/L, SLK: 95%
[2]
  %-inhibition at 1 µmol/L, LATS2: 49%
[3]
  %-inhibition at 1 µmol/L, IKKε: 24%
[4]
  %-inhibition at 1 µmol/L, EPHA1: 61%

## Cc1cc(Nc2ncc(Cl)c(Nc3ccccc3S(=O)(=O)C(C)C)n2)c(OC(C)C)cc1C1CCNCC1 [ceritinib]
[1]; [5]
  %-inhibition at 1 µmol/L, SLK: 64%
[2]; [6]
  %-inhibition at 1 µmol/L, LATS2: 2.29%
[3]; [7]
  %-inhibition at 1 µmol/L, IKKε: 6.42%
[4]; [8]
  %-inhibition at 1 µmol/L, EPHA1: 45%

## O=C(c1ccc(F)c(F)c1Nc1ccc(I)cc1F)N1CC(O)([C@@H]2CCCCN2)C1 [cobimetinib]
[1]; [5]
  %-inhibition at 1 µmol/L, SLK: 6%
[2]; [6]
  %-inhibition at 1 µmol/L, LATS2: 1.46%
[3]; [7]
  %-inhibition at 1 µmol/L, IKKε: -3.35%
[4]; [8]
  %-inhibition at 1 µmol/L, EPHA1: 0.613%

## C[C@@H](Oc1cc(-c2cnn(C3CCNCC3)c2)cnc1N)c1c(Cl)ccc(F)c1Cl [crizotinib]
[1]; [9]
  %-inhibition at 1 µmol/L, SLK: 100%
[2]; [10]
  %-inhibition at 1 µmol/L, LATS2: -6%
[3]; [11]
  %-inhibition at 1 µmol/L, IKKε: 7.49%
[4]; [12]
  %-inhibition at 1 µmol/L, EPHA1: 97%

## CC(C)(C)c1nc(-c2cccc(NS(=O)(=O)c3c(F)cccc3F)c2F)c(-c2ccnc(N)n2)s1 [dabrafenib]
[1]; [9]
  %-inhibition at 1 µmol/L, SLK: 12%
[2]; [10]
  %-inhibition at 1 µmol/L, LATS2: 0.57%
[3]; [11]
  %-inhibition at 1 µmol/L, IKKε: 15%
[4]; [12]
  %-inhibition at 1 µmol/L, EPHA1: 44%

## C=CC(=O)N1CCC[C@@H](n2nc(-c3ccc(Oc4ccccc4)cc3)c3c(N)ncnc32)C1 [ibrutinib]
[1]; [5]
  %-inhibition at 1 µmol/L, SLK: 12%
[2]; [6]
  %-inhibition at 1 µmol/L, LATS2: 5.45%
[3]; [7]
  %-inhibition at 1 µmol/L, IKKε: -0.696%
[4]; [8]
  %-inhibition at 1 µmol/L, EPHA1: 50%

## CO[C@@H]1[C@H](N(C)C(=O)c2ccccc2)C[C@H]2O[C@]1(C)n1c3ccccc3c3c4c(c5c6ccccc6n2c5c31)C(=O)NC4 [midostaurin]
[1]; [5]
  %-inhibition at 1 µmol/L, SLK: 85%
[2]; [6]
  %-inhibition at 1 µmol/L, LATS2: 86%
[3]; [7]
  %-inhibition at 1 µmol/L, IKKε: 97%
[4]; [8]
  %-inhibition at 1 µmol/L, EPHA1: 9%

## C=CC(=O)Nc1cc(Nc2nccc(-c3cn(C)c4ccccc34)n2)c(OC)cc1N(C)CCN(C)C [osimertinib]
[1]; [5]
  %-inhibition at 1 µmol/L, SLK: 17%
[2]; [6]
  %-inhibition at 1 µmol/L, LATS2: 5%
[3]; [7]
  %-inhibition at 1 µmol/L, IKKε: 8%
[4]; [8]
  %-inhibition at 1 µmol/L, EPHA1: 13%

## CC(=O)Nc1cccc(-n2c(=O)n(C3CC3)c(=O)c3c(Nc4ccc(I)cc4F)n(C)c(=O)c(C)c32)c1 [trametinib]
[1]; [9]
  %-inhibition at 1 µmol/L, SLK: -2.6%
[2]; [10]
  %-inhibition at 1 µmol/L, LATS2: 1.87%
[3]; [11]
  %-inhibition at 1 µmol/L, IKKε: -3.63%
[4]; [12]
  %-inhibition at 1 µmol/L, EPHA1: -1.61%

## CCCS(=O)(=O)Nc1ccc(F)c(C(=O)c2c[nH]c3ncc(-c4ccc(Cl)cc4)cc23)c1F [vemurafenib]
[1]; [9]
  %-inhibition at 1 µmol/L, SLK: 43%
[2]; [10]
  %-inhibition at 1 µmol/L, LATS2: -2.28%
[3]; [11]
  %-inhibition at 1 µmol/L, IKKε: -9%
[4]; [12]
  %-inhibition at 1 µmol/L, EPHA1: -9%
